Tests used:
[1] = system: monoclonal antibody CHA255; assay: Determination of hapten-antibody dissociation rates; type: binding, BALB/c mice; settings: 22°C; indium complex of hapten from CHA255 after 100 fold excess of indium-115 loaded hapten
Description: Hapten-antibody dissociation rates were determined using monoclonal antibody CHA255, prepared as described in Example 2A, by measuring the quantity of ¹¹¹In³⁺ chelate released from the antibody hapten complex as a function of time after addition of a 100 fold excess (over antibody binding sites) of indium-115 loaded hapten. Thus, for each hapten, a 700 »l solution was prepared containing: antibody at a concentration of 160 nM; indium loaded hapten, trace labeled with ¹¹¹In (total concentration = 160 nM); normal human serum albumin at a total concentration of 1.5 mg/mL; and isotonic phosphate buffered saline, (10 mM PO₄²⁻, 150 mM NaCl, pH 7.2). Indium-115 loaded hapten was added to a final Concentration of […]. Reactions were stirred by placing the sample containers ir a rack mounted on a vortexer head.
At various times after addition of the excess hapten, […] portions of the reaction solutions were transferred to Centrifree tubes (Amicon Corperation, Danvers, Massachusetts) and centrifuged at 1500xg for eight to ten minutes. The reaction time was taken to be the time between addition of the excess hapten and the time the centrifuge reached the desired velocity. Six timepoints, each in duplicate, were obtained over a range of about two reaction half-lives for each rate constant determination. A 200 »l portion from each centrifuged and uncentrifuged solution was then counted for ¹¹¹In. The relative concentration of free hapten was taken to be the ratio of counts in the centrifuged solution to the uncentrifuged solution at each timepoint. Times were recorded to the nearest tenth of a minute.
Room temperature rate constants were measured without the aid of a constant temperature bath. The ambient temperature remained at 22°±1 C.
Rate constants and standard deviations were obtained from a plot of the logarithm of relative complex concentration vs. time. Data were analyzed using the linear regression module of the RS/1 Program (BBN Software Products Corporation, Cambridge, Massachusetts).
Control samples were included in each experiment to determine: A) that the initial condition of 100% of labeled hapten bound to antibody was met, and B) that in the absence of antibody, 100% of counts were able to penetrate the Centrifree membrane. […]

[2] = system: T-380 tumors; assay: Hapten biodistribution, premix protocol with bifunctional antibody ECH037.2; type: in vivo, nude mice; design: TOTAL RECOV: unit not given here; settings: for % DOSE PER GRAM, KIDNEY / % DOSE PER GRAM, LIVER / % DOSE PER GRAM, TUMOR / FECES / TOTAL RECOV / URINE / % DOSE PER GRAM, BLOOD / TUMOR/BLOOD: premix with 20 µg ECH037.2; for % DOSE PER GRAM, BLOOD: 111In-labeled hapten i.v.; for TUMOR/BLOOD: ratio; for Percent Injected Dose in Feces: premix protocol (Table VI); for %Dose per Gram, Blood / %Dose per Gram, Tumor: premix with 20 µg ECH037.2 (Table VIII)
Description: Two protocols were used for examining the biodistribution of the derivatized haptens in the presence of the bifunctional antibody ECH037.2. In a premix protocol, ECH037.2 and the derivatized hapten were combined prior to injection in the animals. In the prelocalization protocol, ECH037.2 was injected into the animals, and the antibody was allowed to prelocalize for 24 hours prior to injection of the radiolabeled hapten.
Biodistribution studies were performed in nude mice carrying subcutaneous implants of the human colon carcinoma cell line T-380 which expresses the carcinoembryonic antigen (CEA) recognized by ECH037.2. Briefly, Balb/C Nu/Nu mice were injected subcutaneously with a minced preparation of T-380 tumor implants and maintained for approximately two weeks, or until the tumor implant had grown to a size of approximately 0.5 grams as described by Hagan, P.L., et al. J. Nuc. Med., 26 1418-1423 (1985). Mice were kept in a sterile environment to prevent complications due to bacterial or viral infections. Biodistributions were performed as described by Halpern, S., et al., Cancer Res. 43, 5347-5355 (1983). Briefly, the radiolabeled haptens were injected intravenously in […], and the pharmacokinetics were evaluated at several time points post-injection. At these times, mice were sacrificed and weighed. Organs were removed, their weight recorded, and each organ was then washed in sterile PBS, pH 7.0, and fixed in formalin solution. Samples of blood, urine and feces also were collected and their weight similarly recorded. The organs, or a portion thereof, were transferred to clean tubes and their radioactive content was determined in a well-type gamma-counter.
Relative radioactive content of each organ was expressed as a percentage of injected dose per organ.
To indium-label the haptens of the invention 10 »l of 0.1 mM ligand was combined with X »l of ¹¹¹InCl₃ (in 50 mM HCl) and (x+10) »l of 0.26 M ammonium citrate, pH 6.0. X is calculated by the following equation: X = (200 »Ci)/(A »Ci/»l) [formula] where A is the specific activity of the ¹¹¹In.
The labeling was done in an acid-washed microfuge tube. After combining all of the components above, the solution was vortexed and allowed to stand at room temperature for 15 minutes.
Incorporation of the ¹¹¹In into the chelating agent was determined by TLC on silica in a methanol/aqueous ammonium acetate solvent system as described by Meares, et al. (Anal. Biochem., 142, 68-75 (1984)). Greater than 95% incorporation of the radioactivity into the chelate was required for the sample to be submitted for a biodistribution assay.
Prior to injection the ¹¹¹In-labeled hapten was diluted into freshly prepared isotonic sodium bicarbonate (1.39% w/v) containing 1 mg/ml normal human serum albumin (Buminate, 25% solution, Travenol Laboratories, Glendale, California) to which the bifunctional antibody had been added. The final composition of the solution was 0.2 mg/ml ECH037.2, 0.5 »M chelate, 0.1 »Ci/»l ¹¹¹In, all in a volume of 2.0 ml. For the biodistribution studies, 100 »l of the solution was injected into the tail vein of each animal.

O=C(O)CCCC(=O)NCCNC(=S)Nc1ccc(CC(CN(CC(=O)O)CC(=O)O)N(CC(=O)O)CC(=O)O)cc1 (stereo not shown) [GNUBE]
t1/2, Dissociation Half-Lives [1]: 1.65 h | % DOSE PER GRAM, KIDNEY ([2]; 24 hours): 2.7 % DOSE PER GRAM | % DOSE PER GRAM, LIVER ([2]; 24 hours): 3.4 % DOSE PER GRAM | % DOSE PER GRAM, TUMOR ([2]; 24 hours): 9.0 % DOSE PER GRAM | FECES ([2]; 24 hours): 10.6% of total injected dose | TOTAL RECOV ([2]; 24 hours): 52.0 | URINE ([2]; 24 hours): 14.2% of total injected dose | % DOSE PER GRAM, BLOOD ([2]; 24 hours): 13.0 % DOSE PER GRAM | TUMOR/BLOOD ([2]; 24 hours): 0.70 | Percent Injected Dose in Feces ([2]; 24 hrs.): 10.6 Percent Injected Dose | % DOSE PER GRAM, KIDNEY ([2]; 48 hours): 1.5 % DOSE PER GRAM | % DOSE PER GRAM, LIVER ([2]; 48 hours): 2.4 % DOSE PER GRAM | % DOSE PER GRAM, TUMOR ([2]; 48 hours): 12.0 % DOSE PER GRAM | FECES ([2]; 48 hours): 17.8% of total injected dose | TOTAL RECOV ([2]; 48 hours): 63.1 | URINE ([2]; 48 hours): 26.9% of total injected dose | % DOSE PER GRAM, BLOOD ([2]; 48 hours): 8.0 % DOSE PER GRAM | TUMOR/BLOOD ([2]; 48 hours): 1.49 | Percent Injected Dose in Feces ([2]; 48 hrs.): 17.8 Percent Injected Dose

CCCCNC(=S)Nc1ccc(CC(CN(CC(=O)O)CC(=O)O)N(CC(=O)O)CC(=O)O)cc1 (stereo not shown) [BUTUBE]
t1/2, Dissociation Half-Lives [1]: 1.51 h | % DOSE PER GRAM, KIDNEY ([2]; 24 hours): 1.7 % DOSE PER GRAM | % DOSE PER GRAM, LIVER ([2]; 24 hours): 3.4 % DOSE PER GRAM | % DOSE PER GRAM, TUMOR ([2]; 24 hours): 5.3 % DOSE PER GRAM | FECES ([2]; 24 hours): 16.8% of total injected dose | TOTAL RECOV ([2]; 24 hours): 63.8 | URINE ([2]; 24 hours): 22.0% of total injected dose | % DOSE PER GRAM, BLOOD ([2]; 24 hours): 9.0 % DOSE PER GRAM | TUMOR/BLOOD ([2]; 24 hours): 0.59 | amount of hapten in the tumor ([2]; 24 hrs., premix protocol): 5.3 percent injected dose/gram | Percent Injected Dose in Feces ([2]; 24 hrs.): 16.8 Percent Injected Dose | % DOSE PER GRAM, KIDNEY ([2]; 48 hours): 1.2 % DOSE PER GRAM | % DOSE PER GRAM, LIVER ([2]; 48 hours): 3.8 % DOSE PER GRAM | % DOSE PER GRAM, TUMOR ([2]; 48 hours): 5.7 % DOSE PER GRAM | FECES ([2]; 48 hours): 26.5% of total injected dose | TOTAL RECOV ([2]; 48 hours): 69.3 | URINE ([2]; 48 hours): 27.0% of total injected dose | % DOSE PER GRAM, BLOOD ([2]; 48 hours): 5.8 % DOSE PER GRAM | TUMOR/BLOOD ([2]; 48 hours): 0.98 | injected material excreted in the feces ([2]; 48 hrs. post injection, premix protocol): 26.5% of the injected material | amount of hapten in the tumor ([2]; 48 hrs., premix protocol): 5.7 percent injected dose/gram | Percent Injected Dose in Feces ([2]; 48 hrs.): 26.5 Percent Injected Dose

NCCNC(=S)Nc1ccc(CC(CN(CC(=O)O)CC(=O)O)N(CC(=O)O)CC(=O)O)cc1 (stereo not shown) [NUBE]
t1/2, Dissociation Half-Lives [1]: 0.76 h | % DOSE PER GRAM, KIDNEY ([2]; 24 hours): 4.0 % DOSE PER GRAM | % DOSE PER GRAM, LIVER ([2]; 24 hours): 3.1 % DOSE PER GRAM | % DOSE PER GRAM, TUMOR ([2]; 24 hours): 8.5 % DOSE PER GRAM | FECES ([2]; 24 hours): 5.9% of total injected dose | TOTAL RECOV ([2]; 24 hours): 66.3 | URINE ([2]; 24 hours): 42.5% of total injected dose | % DOSE PER GRAM, BLOOD ([2]; 24 hours): 5.9 % DOSE PER GRAM | TUMOR/BLOOD ([2]; 24 hours): 1.44 | %Dose per Gram, Blood ([2]; 24 hrs. post-injection): 5.8 %Dose per Gram | %Dose per Gram, Tumor ([2]; 24 hrs. post-injection): 11.7 %Dose per Gram | Percent Injected Dose in Feces ([2]; 24 hrs.): 5.9 Percent Injected Dose | % DOSE PER GRAM, KIDNEY ([2]; 48 hours): 2.5 % DOSE PER GRAM | % DOSE PER GRAM, LIVER ([2]; 48 hours): 1.9 % DOSE PER GRAM | % DOSE PER GRAM, TUMOR ([2]; 48 hours): 8.1 % DOSE PER GRAM | FECES ([2]; 48 hours): 12.9% of total injected dose | TOTAL RECOV ([2]; 48 hours): 74.1 | URINE ([2]; 48 hours): 52.6% of total injected dose | % DOSE PER GRAM, BLOOD ([2]; 48 hours): 2.0 % DOSE PER GRAM | TUMOR/BLOOD ([2]; 48 hours): 4.0 | %Dose per Gram, Blood ([2]; 48 hrs. post-injection): 3.3 %Dose per Gram | %Dose per Gram, Tumor ([2]; 48 hrs. post-injection): 12.2 %Dose per Gram | Percent Injected Dose in Feces ([2]; 48 hrs.): 12.9 Percent Injected Dose | %Dose per Gram, Blood ([2]; 72 hrs. post-injection): 0.7 %Dose per Gram | %Dose per Gram, Tumor ([2]; 72 hrs. post-injection): 10.5 %Dose per Gram

O=C(O)CN(CC(=O)O)CC(Cc1ccc(NC(=S)Nc2ccccc2)cc1)N(CC(=O)O)CC(=O)O (stereo not shown) [PHTUBE]
t1/2, Dissociation Half-Lives [1]: 1.25 h | % DOSE PER GRAM, KIDNEY ([2]; 24 hours): 2.9 % DOSE PER GRAM | % DOSE PER GRAM, LIVER ([2]; 24 hours): 3.6 % DOSE PER GRAM | % DOSE PER GRAM, TUMOR ([2]; 24 hours): 12.4 % DOSE PER GRAM | FECES ([2]; 24 hours): 13.9% of total injected dose | TOTAL RECOV ([2]; 24 hours): 57.2 | URINE ([2]; 24 hours): 20.3% of total injected dose | % DOSE PER GRAM, BLOOD ([2]; 24 hours): 8.9 % DOSE PER GRAM | TUMOR/BLOOD ([2]; 24 hours): 1.39 | Percent Injected Dose in Feces ([2]; 24 hrs.): 13.9 Percent Injected Dose | % DOSE PER GRAM, KIDNEY ([2]; 48 hours): 1.7 % DOSE PER GRAM | % DOSE PER GRAM, LIVER ([2]; 48 hours): 2.3 % DOSE PER GRAM | % DOSE PER GRAM, TUMOR ([2]; 48 hours): 10.6 % DOSE PER GRAM | FECES ([2]; 48 hours): 21.7% of total injected dose | TOTAL RECOV ([2]; 48 hours): 62.4 | URINE ([2]; 48 hours): 24.5% of total injected dose | % DOSE PER GRAM, BLOOD ([2]; 48 hours): 5.4 % DOSE PER GRAM | TUMOR/BLOOD ([2]; 48 hours): 1.96 | Percent Injected Dose in Feces ([2]; 48 hrs.): 27.1 Percent Injected Dose
